# Test system: hepatitis virus B (HBV) infection
# Assay: HepG2 NTCP assay (HBcAg staining as marker of HBV infection)
# Format: cell-based
# Conditions: HepG2-NTCP cells infected with HBV, HBV core antigen (HBcAg) as marker of infection
# Summary of the method: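 HepG2-NTCP cells were infected with HBV (4% PEG, 1% DMSO) in the presence of compound overnight, then re-dosed and incubated 5 days at 37 °C. HBcAg immunofluorescence was imaged, with DAPI nuclei count taken as toxicity. Ten-point 1/3 dilutions gave % inhibition against 0.2% DMSO vehicle and 100 nM Myrcludex B, with dose-response curves fitted.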
row,Structure (SMILES),IC50
1,"COCCCOc1cc2c(cc1F)-c1c(cc(C(=O)O)c(=O)n1C1CC1)C(C(C)C)O2 (stereo not drawn) [Compound 1, 1-cyclopropyl-9-fluoro-5-isopropyl-8-(3-methoxypropoxy)-2-oxo-5H-chromeno[4,3-b]pyridine-3-carboxylic acid]",0.001 to 1 nM
2,"COCCCOc1cc2c(cc1Cl)-c1c(cc(C(=O)O)c(=O)n1C1CC1)CO2 [Compound 6, 9-chloro-1-cyclopropyl-8-(3-methoxypropoxy) -2-oxo-5H-chromeno[4,3-b]pyridine-3-carboxylic acid]",0.001 to 1 nM
3,"CCC1Oc2cc(OCCCOC)c(F)cc2-c2c1cc(C(=O)O)c(=O)n2C1CC1 (stereo not drawn) [Compound 16, 1-cyclopropyl-5-ethyl-9-fluoro-8-(3-methoxypropoxy) -2-oxo-5H-chromeno[4,3-b]pyridine-3-carboxylic acid]",0.001 to 1 nM

# The remaining lines, values ahead:
row,IC50,Structure (SMILES)
1,0.001 to 1 nM,"COCCCOc1cc2c(cc1Cl)-c1c(cc(C(=O)O)c(=O)n1C1CC1)C(C(C)(C)COC)O2 (stereo not drawn) [Compound 19, 9-chloro-1-cyclopropyl-5-(2-methoxy-1,1-dimethyl-ethyl)-8-(3-methoxypropoxy) -2-oxo-5H-chromeno[4,3-b]pyridine-3-carboxylic acid]"
2,0.001 to 1 nM,"COCCCOc1cc2c(cc1F)-c1c(cc(C(=O)O)c(=O)n1C1CC1)[C@H](C(C)C)O2 [Compound 44, (5S)-1-cyclopropyl-9-fluoro-5-isopropyl-8-(3-methoxypropoxy)-2-oxo-5H-chromeno[4,3-b]pyridine-3-carboxylic acid]"
3,0.001 to 1 nM,"COCCCOc1cc2c(cc1Cl)-c1c(cc(C(=O)O)c(=O)n1C1CC1)[C@H](C1(C)COC1)O2 [Compound 46, (5R)-9-chloro-1-cyclopropyl-8-(3-methoxypropoxy)-5-(3-methyloxetan-3-yl)-2-oxo-5H-chromeno[4,3-b]pyridine-3-carboxylic acid]"

# Source: EP3720857B1, “2-OXO-5H-CHROMENO[4,3-B]PYRIDINES FOR USE IN THE TREATMENT OF HEPATITIS B” (Galapagos NV, priority 2017, dated 2019)
